SMILES strings stand for the structures. Bounds are passed on as bounds.

The target of test [1] is MET (human) (Homo sapiens, UniProt P08581). Description: MET (human) AlphaScreen kinase assay, Km of ATP. Type of test: biochemical. To be noted: AlphaScreen, Km of ATP; read-out: Met biochemical IC50. The essentials:
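Human MET at lot-optimised concentration in 50 mM Tris pH 7.4 buffer with 1 mM DTT, compound at 1% DMSO final; enzyme starts the reaction, 60 min at RT.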
A general note: Bead proximity is the source of the signal in Alpha formats.

Test [2] addresses RON (human) (Homo sapiens, UniProt Q04912). In words: RON (human) AlphaScreen kinase assay, Km of ATP. Type of test: biochemical. To be noted: AlphaScreen, Km of ATP; read-out: RON biochemical IC50. The essentials: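 Reaction was started with enzyme and run 30 min at RT. PT66 donor/acceptor beads in an EDTA-containing Tris pH 7.5 buffer were then added, and the signal was read after 1 h.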

MET (human), sequence (P08581 25-1390): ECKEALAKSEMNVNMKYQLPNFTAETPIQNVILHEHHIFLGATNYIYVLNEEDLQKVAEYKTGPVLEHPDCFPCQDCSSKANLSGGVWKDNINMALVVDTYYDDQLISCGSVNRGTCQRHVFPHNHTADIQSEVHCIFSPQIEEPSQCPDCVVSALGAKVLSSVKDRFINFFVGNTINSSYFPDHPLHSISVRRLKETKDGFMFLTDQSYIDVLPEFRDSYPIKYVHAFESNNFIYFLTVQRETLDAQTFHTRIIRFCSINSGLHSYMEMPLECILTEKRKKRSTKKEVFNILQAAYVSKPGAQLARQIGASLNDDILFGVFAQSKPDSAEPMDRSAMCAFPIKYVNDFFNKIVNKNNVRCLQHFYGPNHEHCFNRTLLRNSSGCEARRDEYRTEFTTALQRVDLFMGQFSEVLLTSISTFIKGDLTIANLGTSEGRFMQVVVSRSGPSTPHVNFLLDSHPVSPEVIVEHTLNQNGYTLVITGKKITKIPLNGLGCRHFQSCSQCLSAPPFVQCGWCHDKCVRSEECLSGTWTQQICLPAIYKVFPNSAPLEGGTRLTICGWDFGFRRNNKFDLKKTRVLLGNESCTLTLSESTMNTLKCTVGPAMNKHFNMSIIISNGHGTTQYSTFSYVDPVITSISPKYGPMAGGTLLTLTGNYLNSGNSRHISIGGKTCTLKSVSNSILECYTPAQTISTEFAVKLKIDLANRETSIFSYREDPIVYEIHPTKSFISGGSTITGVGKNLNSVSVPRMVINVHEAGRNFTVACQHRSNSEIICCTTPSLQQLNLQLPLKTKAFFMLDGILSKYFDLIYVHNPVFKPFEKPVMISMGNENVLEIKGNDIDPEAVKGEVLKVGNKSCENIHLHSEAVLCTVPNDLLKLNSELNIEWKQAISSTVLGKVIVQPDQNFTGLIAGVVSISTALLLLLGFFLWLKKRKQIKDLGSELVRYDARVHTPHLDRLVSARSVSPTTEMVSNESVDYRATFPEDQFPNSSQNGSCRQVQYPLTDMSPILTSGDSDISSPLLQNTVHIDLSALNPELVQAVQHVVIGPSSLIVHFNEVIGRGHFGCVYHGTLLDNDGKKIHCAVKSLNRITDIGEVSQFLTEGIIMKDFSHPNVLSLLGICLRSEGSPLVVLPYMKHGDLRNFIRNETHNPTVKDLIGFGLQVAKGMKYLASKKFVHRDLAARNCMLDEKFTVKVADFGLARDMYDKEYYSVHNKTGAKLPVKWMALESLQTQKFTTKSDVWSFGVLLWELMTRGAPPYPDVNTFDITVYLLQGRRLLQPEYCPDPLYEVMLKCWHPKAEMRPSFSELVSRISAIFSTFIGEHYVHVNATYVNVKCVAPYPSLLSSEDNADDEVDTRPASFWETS
RON (human), sequence (Q04912 25-1400): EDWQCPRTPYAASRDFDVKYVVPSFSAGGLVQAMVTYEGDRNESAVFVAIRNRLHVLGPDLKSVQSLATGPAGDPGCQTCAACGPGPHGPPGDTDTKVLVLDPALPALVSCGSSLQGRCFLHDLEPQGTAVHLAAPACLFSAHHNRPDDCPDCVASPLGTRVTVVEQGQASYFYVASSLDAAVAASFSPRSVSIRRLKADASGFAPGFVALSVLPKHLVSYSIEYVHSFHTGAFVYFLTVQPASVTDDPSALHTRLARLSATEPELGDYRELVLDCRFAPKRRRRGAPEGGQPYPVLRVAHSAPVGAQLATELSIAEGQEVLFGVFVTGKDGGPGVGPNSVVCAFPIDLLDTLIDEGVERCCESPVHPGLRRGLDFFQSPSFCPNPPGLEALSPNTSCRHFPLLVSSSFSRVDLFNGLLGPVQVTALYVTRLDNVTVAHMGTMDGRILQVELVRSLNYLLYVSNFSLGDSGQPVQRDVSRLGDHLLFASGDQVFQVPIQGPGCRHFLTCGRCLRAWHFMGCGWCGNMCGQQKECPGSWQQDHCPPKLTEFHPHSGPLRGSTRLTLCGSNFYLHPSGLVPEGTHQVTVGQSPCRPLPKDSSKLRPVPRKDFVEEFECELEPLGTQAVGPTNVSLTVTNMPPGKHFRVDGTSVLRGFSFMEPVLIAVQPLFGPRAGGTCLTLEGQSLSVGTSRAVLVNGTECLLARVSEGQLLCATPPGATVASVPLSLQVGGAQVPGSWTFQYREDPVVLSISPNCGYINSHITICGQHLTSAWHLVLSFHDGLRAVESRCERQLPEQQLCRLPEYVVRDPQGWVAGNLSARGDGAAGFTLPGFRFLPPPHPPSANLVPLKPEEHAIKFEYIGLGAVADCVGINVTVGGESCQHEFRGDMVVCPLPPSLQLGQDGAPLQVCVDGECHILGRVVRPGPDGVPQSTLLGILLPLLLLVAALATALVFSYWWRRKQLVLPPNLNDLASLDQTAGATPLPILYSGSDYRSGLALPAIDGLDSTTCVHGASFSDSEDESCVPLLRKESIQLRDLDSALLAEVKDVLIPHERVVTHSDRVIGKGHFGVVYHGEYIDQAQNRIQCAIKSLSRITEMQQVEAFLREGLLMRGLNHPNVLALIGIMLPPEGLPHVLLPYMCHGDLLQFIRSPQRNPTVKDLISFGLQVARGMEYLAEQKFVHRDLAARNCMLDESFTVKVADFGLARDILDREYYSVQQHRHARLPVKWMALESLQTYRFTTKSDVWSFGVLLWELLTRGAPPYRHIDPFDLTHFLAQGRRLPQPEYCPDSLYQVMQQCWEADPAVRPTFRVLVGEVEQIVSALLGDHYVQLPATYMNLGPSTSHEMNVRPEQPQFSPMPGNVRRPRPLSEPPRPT

Turning to `CC(Oc1c(N)ncc2c(-c3cnn(C4CCNCC4)c3)coc12)c1cc(F)cc(-c2ccn[nH]2)c1` (stereo not shown) [Example 450, 7-{1-[3-Fluoro-5-(2H-pyrazol-3-yl)phenyl]ethoxy}-3-(1-piperidin-4-yl-1H-pyrazol-4-yl)furo[3,2-c]pyridin-6-ylamine], the IC50 (commonly the point on the concentration scale where inhibition reaches its midpoint) is < 500 nM in test [1] and 500 to 5000 nM in test [2].

Turning to `CC(Oc1c(N)ncc2c(-c3cnn(C4CCNCC4)c3)coc12)c1cc(F)cc(-c2cn[nH]c2)c1` (stereo not shown) [Example 451, 7-{1-[3-Fluoro-5-(1H-pyrazol-4-yl)phenyl]ethoxy}-3-(1-piperidin-4-yl-1H-pyrazol-4-yl)furo[3,2-c]pyridin-6-ylamine], the values for the half-maximal inhibitory concentration (IC50) in test [1] and in test [2] were < 500 nM and 500 to 5000 nM, respectively.

Turning to `CC(Oc1c(N)ncc2c(-c3cnn(C4CCNCC4)c3)coc12)c1cc(F)cc(-c2cnn(C)c2)c1` (stereo not shown) [Example 452, 7-{1-[3-Fluoro-5-(1-methyl-1H-pyrazol-4-yl)phenyl]ethoxy}-3-(1-piperidin-4-yl-1H-pyrazol-4-yl)furo[3,2-c]pyridin-6-ylamine], the IC50 in test [1] is < 500 nM; in test [2] it was 500 to 5000 nM.

On to `CC(Oc1c(N)ncc2c(C3=CCN(C(N)=O)CC3)coc12)c1c(Cl)ccc(F)c1Cl` (stereo not shown) [Example 455, 4-{6-Amino-7-[1-(2,6-dichloro-3-fluorophenyl)ethoxy]furo[3,2-c]pyridin-3-yl}-3,6-dihydro-2H-pyridine-1-carboxamide], for which the IC50 in test [1] was < 500 nM; in test [2], 500 to 5000 nM.

As for `C[C@H](Oc1c(N)ncc2c(C3=CCN(C(N)=O)CC3)coc12)c1c(Cl)ccc(F)c1Cl` [Example 456, 4-{6-Amino-7-[(S)-1-(2,6-dichloro-3-fluorophenyl)ethoxy]furo[3,2-c]pyridin-3-yl}-3,6-dihydro-2H-pyridine-1-carboxamide], the IC50 in test [1] is < 500 nM; in test [2], 500 to 5000 nM.

On to `CC(Oc1c(N)ncc2c(C3=CCN(C(N)=O)CC3)coc12)c1c(Br)ccc(F)c1Cl` (stereo not shown) [Example 457, 4-{6-Amino-7-[1-(6-bromo-2-chloro-3-fluorophenyl)ethoxy]furo[3,2-c]pyridin-3-yl}-3,6-dihydro-2H-pyridine-1-carboxamide], for which the IC50 in test [1] was < 500 nM; in test [2] it was 500 to 5000 nM.

With `C#CCC(Oc1c(N)ncc2c(C3=CCN(C(N)=O)CC3)coc12)c1c(Cl)ccc(F)c1Cl` (stereo not shown) [Example 459, 4-(6-Amino-7-{[1-(2,6-dichloro-3-fluorophenyl)but-3-yn-1-yl]oxy}furo[3,2-c]pyridin-3-yl)-3,6-dihydropyridine-1(2H)-carboxamide], the IC50 was < 500 nM in test [1] and 500 to 5000 nM in test [2].

Turning to `Nc1ncc2ccoc2c1OCc1ccc(NC(=O)c2cccn(-c3ccc(F)cc3)c2=O)cc1` [Example 461, 1-(4-Fluorophenyl)-2-oxo-1,2-dihydropyridine-3-carboxylic acid [4-(6-aminofuro[3,2-c]pyridin-7-yloxymethyl)phenyl]amide], the IC50 in test [1] is 500 to 5000 nM; in test [2], > 20000 nM.

In the case of `Cn1c(Cc2ccccc2)ncc(-c2ccc(COc3c(N)ncc4c(-c5cnn(C6CCNCC6)c5)coc34)cc2)c1=O` [Example 462, 5-{4-[6-Amino-3-(1-piperidin-4-yl-1H-pyrazol-4-yl)-furo[3,2-c]pyridin-7-yloxymethyl]-phenyl}-2-benzyl-3-methyl-3H-pyrimidin-4-one], the IC50 in test [1] and in test [2] was < 500 nM throughout.

`Cn1c(Cc2ccccc2)ncc(-c2ccc(COc3c(N)ncc4c(-c5cnn(C6CCNCC6)c5)coc34)c(F)c2)c1=O` [Example 463, 5-{4-[6-Amino-3-(1-piperidin-4-yl-1H-pyrazol-4-yl)-furo[3,2-c]pyridin-7-yloxymethyl]-3-fluorophenyl}-2-benzyl-3-methyl-3H-pyrimidin-4-one]: the IC50 in test [1] and in test [2] was < 500 nM each time.

As to `Cn1c(Cc2ccccc2)ncc(-c2ccc(COc3c(N)ncc4c(Br)coc34)cc2)c1=O` [Example 465, 5-[4-(6-Amino-3-bromofuro[3,2-c]pyridin-7-yloxymethyl)phenyl]-2-benzyl-3-methyl-3H-pyrimidin-4-one], the IC50 in test [1] fell in the range of 500 to 5000 nM; in test [2] it was 5000 to 20000 nM.

The record behind these values is patent publication US8022206B2 (OSI Pharmaceuticals, LLC, priority 2008, dated 2011).
